Patent US20210189367A1, “Inducible Cell Receptors for Cell-Based Therapeutics” (Senti Biosciences, Inc., priority 2017, published 2021)

Columns and labels:
Type in all cases: cell-based, human
[1] = test system: Jurkat cells transduced with an anti-Her2 CAR fused to a self-excising degron; experiment: T cell activation (CD69) of anti-Her2 CAR-degron Jurkat cells on recombinant Her2; conditions: 1 μM ASV 2 days, then recombinant Her2-coated plates overnight, even at high Her2 (10 μg/mL)
Procedure: The function of an anti-Her2 CAR fused to a self-excising degron in T cells was tested in vitro. Jurkat cells (an immortalized human T cell line) were transduced with an anti-Her2 CAR fused to a self-excising degron (SEQ ID NO: 4). These cells were incubated in the presence (1 μM ASV) or absence of the ASV protease inhibitor for 2 days, then subsequently placed on tissue culture plates coated with recombinant Her2 (low=2.5 μg/mL; high=10 μg/mL). Following overnight incubation, the ant-Her2 CAR T cells were stained with an anti-CD69 fluorescent antibody, and the mean fluorescence of each cell population was measured using flow cytometry. CD69 was used as a T-cell activation marker.

CAR [2] = experiment: Switchable expression of CAR by application of ASV (YFP, flow cytometry), CAR T cells
Source text: The first fusion protein (left) comprises an extracellular protein binding domain fused to a myc tag and three intracellular signaling domains fused to YFP. The second fusion protein (middle; “CAR-SMASh”) further comprises a Hepatitis C (HCV) NS4A-NS4B protease cleavage site, a HCV NS3 protease domain, and a degron derived from the HCV NS4A protein. The CAR-SMASh, therefore, expresses CAR, but induces degradation of CAR in the presence of ASV. The third fusion protein (right; “CAR-SMASh[GGS]”) is a CAR-SMASh mutant lacking the NS4 degron.
(§1) Human total pan T cells were isolated from PBMC donors by magnetic-assisted cell sorting using StemCell Technologies Total Pan T Cell Isolation Kit and stimulated with anti-CD3/28 Dynabeads at a 1:3 ratio (T cells:Dynabeads), 10^6 T cells with 3×10^Dynabeads, in CTS OpTmizer media with CTS Serum Replacement and recombinant human IL-2 [100 U/ml]. One day later T cells were then transduced with lentivirus carrying a CAR comprising anti-HER2 or anti-CD19 scFv. Specifically, lentivirus encoding CAR, CAR-SMASh and CAR-SMASh[GGS] comprising anti-HER2 or anti-CD19 scFv was transduced. CAR-T cells were then split into a larger well with fresh media added. On Day 5 CAR-T cells were exposed to ASV [2 μM] and then analyzed by flow cytometry to measure YFP expression at various time points, including on day 6 (FIG. 13) and on day 7 (FIG. 14).

CAR [3] = experiment: Switchable expression of CAR by removal of ASV (YFP, flow cytometry), CAR T cells; conditions: T cells transduced with CAR (FIG. 16A)
Source text: as §1, with “3×10^6 Dynabeads,” for “3×10^Dynabeads,”, “for 2 days, washed 2 times, then re-cultured in media without ASV” for “[2 μM]”, “were acquired” for “analyzed”, “cytometry” for “cytometry to measure YFP expression”, “points” for “points, including on day 6 (FIG. 13)”, “YFP expression was measured.” for “on day 7 (FIG. 14).”

[4] = test system: CAR-T cells co-cultured with target HER2+ SKOV3 tumor cells; experiment: Cytokine production by CAR-T cells co-cultured with target tumor cells, Luminex multi-cytokine array; conditions: CAR-SMASh T cells, ASV 2 μM, E:T 10:1
Source text: Human […] pan T cells were isolated from PBMC donors by magnetic-assisted cell sorting using StemCell Technologies Total Pan T Cell Isolation Kit and stimulated with anti-CD3/28 Dynabeads at a 1:3 ratio (T cells:Dynabeads), 10^6 T cells with 3×10^6 Dynabeads, in CTS OpTmizer media with CTS Serum Replacement and recombinant human IL-2 [100 U/ml]. 1 day later T cells were then transduced with lentivirus carrying anti-HER2 scFv CAR-SMASh designs. CAR-T cells were then split into a larger well with fresh media added. On Day 6 CAR-T cells were treated with ASV [2 μM] for 2 days. On Day 8 CAR-T cells were washed, replenished with ASV, and co-cultured with target HER2+ SKOV3 tumor cells at (10:1) effector-to-target (E:T) ratio, incubated overnight, and supernatants collected the next day. Cytokines were measured by Luminex multi-cytokine array using a Luminex MagPix (Sigma Millipore).

SMILES: C=C[C@@H]1C[C@]1(NC(=O)[C@@H]1C[C@@H](Oc2ncc(OC)c3ccc(Cl)cc23)CN1C(=O)[C@@H](NC(=O)OC(C)(C)C)C(C)(C)C)C(=O)NS(=O)(=O)C1CC1 [ASV, Asunaprevir]
- cells activated (CD69) [1]: less than 25%
- CAR expression (percentage YFP+ and YFP MFI) (CAR [2]; CAR T cells, ASV 2 μM, day 6 (FIG. 13)): no effect
- CAR expression (percentage YFP+) over time after addition of ASV (CAR [2]; T cells expressing CAR (FIG. 15A)): no effect
- reversible effects on CAR expression (percentage YFP+) after removal of ASV (CAR [3]): not observed
- IFN-gamma production ([4]; overnight (FIG. 19A)): decreased production
- IL-lalpha production ([4]; overnight (FIG. 19B)): decreased production
- IL-6 production ([4]; overnight (FIG. 19C)): decreased production
